# Results taken from patent US5792831A, “Analogues of magainin peptides containing D-amino acids” (priority 1994, dated 1998).
# Square brackets hold non-standard residues; d marks the D form. Ends that are not written are not given here.
# Legend:
# Assay type in all cases: cell-based
# [1] = tested on: WM1158 (metastatic melanoma); assay: Melanoma growth reduction, 3H-thymidine incorporation (Example 4); details: 2% tumor medium
# Method: (§1) Melanoma cell lines WM-239-A (metastatic melanoma), WM278 (primary melanoma), WM793 (primary melanoma) and WM1158 (metastatic melanoma) were seeded in 24-well plates at a concentration of 7.5×10^4 cells/ml containing 2% tumor medium.
# (§2) Peptides (SEQ ID NO:6) and D-(SEQ ID NO:6), in which each amino acid residue is a D-amino residue or a glycine residue, were frozen at -20° C. in […] aliquots at a concentration of 25 mg/ml. Each peptide was then dissolved in sterile distilled water at a dilution of 1:1,000 or 1:5,000 to provide peptide concentrations of 25 μg/ml or 5 μg/ml, respectively. The peptides at the 25 μg/ml or 5 μg/ml concentrations were then added to the plates containing the melanoma cells. The amount of ^3 H-thymidine incorporation for each well was taken on days 1, 3, and 7.
# [2] = tested on: WM-239-A (metastatic melanoma); assay: as above; details: 2% tumor medium
# Method: as §1, §2
# [3] = tested on: WM278 (primary melanoma); assay: as above; details: 2% tumor medium
# Method: as §1, §2
# [4] = tested on: WM793 (primary melanoma); assay: as above; details: 2% tumor medium
# Method: as §1, §2
# [5] = tested on: melanoma cell line WM852; assay: Melanoma growth reduction (Example 5); details: dose 25 μg/ml
# Method: as §1, §2
# (§3) Peptides (SEQ ID NO:10) and D-(SEQ ID NO:10), in which each amino acid is a D-amino acid residue, are tested for % growth reduction of melanoma cell lines WM852 (grown in 2% tumor media or PF media), WM983A (grown in 2% tumor media or PF media), WM793 (grown in 2% tumor media), and WM1985 (grown in PF media) according to the procedure of Example 4, except that only a concentration of 25 μg/ml was employed for (SEQ ID NO:10), and concentrations of 1.0, 2.5, 5.0, 10.0, and 25.0 μg/ml were employed for D-(SEQ ID NO:10).
# [6] = tested on: melanoma cell line WM1985; assay: Melanoma growth reduction (Example 5); details: dose 25 μg/ml, PF media
# Method: as §1, §2, §3
# [7] = tested on: melanoma cell line WM793; assay: Melanoma growth reduction (Example 5); details: dose 25 μg/ml, 2% tumor media
# Method: as §1, §2, §3
# [8] = tested on: melanoma cell line WM983A; assay: Melanoma growth reduction (Example 5); details: dose 25 μg/ml
# Method: as §1, §2, §3
# [9] = tested on: melanoma cell line WM1158; assay: 3H-thymidine radioactive counts, melanoma cells (Example 6); details: 2% tumor media
# [10] = tested on: melanoma cell line WM983B; assay: as above; details: 2% tumor media
# [11] = tested on: melanoma cell line WM239A; assay: as above; details: 2% tumor media
# [12] = tested on: melanoma cell line WM115; assay: as above; details: 2% tumor media
# [13] = tested on: melanoma cell line WM1791A; assay: as above; details: 2% tumor media
# [14] = tested on: melanoma cell line WM35; assay: as above; details: 2% tumor media
# [15] = tested on: melanoma cell line WM973; assay: as above; details: 2% tumor media
# [16] = tested on: melanoma cell line WM983A; assay: as above; details: 2% tumor media
# [17] = tested on: melanoma cell line WM39; assay: as above; details: 2% tumor media
# [18] = tested on: melanoma cell line WM902B; assay: as above; details: 2% tumor media
# [19] = tested on: melanoma cell line SkMe123; assay: as above; details: 2% tumor media
# [20] = tested on: melanoma cell line WM1366; assay: as above; details: 2% tumor media
# [21] = tested on: melanoma cell line WM852; assay: as above; details: 2% tumor media
# [22] = tested on: melanoma cell line WM8; assay: as above; details: 2% tumor media
# [23] = tested on: melanoma cell line WM164; assay: as above; details: 2% tumor media
substance,measurement,setting,value
"(SEQ ID NO:6): peptide of SEQ ID NO:6, comparator not marked D; possibly the same as (SEQ ID NO:6)-NH2 (GIGKFLKSAKKFGKAFVKILNS; not fully specified) [reference compound]",% Growth Reduction (7 days) WM1158,[1]; dose 5 μg/ml,0%
same,% Growth Reduction (7 days) WM1158,[1]; dose 25 μg/ml,98.5%
same,% Growth Reduction (7 days) WM239-A,[2]; dose 5 μg/ml,0%
same,% Growth Reduction (7 days) WM239-A,[2]; dose 25 μg/ml,95.8%
same,% Growth Reduction (7 days) WM-278,[3]; dose 5 μg/ml,0%
same,% Growth Reduction (7 days) WM-278,[3]; dose 25 μg/ml,96.0%
same,% Growth Reduction (7 days) WM793,[4]; dose 5 μg/ml,11.6%
same,% Growth Reduction (7 days) WM793,[4]; dose 25 μg/ml,98.0%
"(SEQ ID NO:10): peptide of SEQ ID NO:10, comparator not marked D; possibly the same as (SEQ ID NO:10)-NH2 (KKLLKKLKKLLKKL; not fully specified) [reference compound]",% Growth Reduction (7 days) WM852-2%,[5]; 2% tumor media,0%
same,% Growth Reduction (7 days) WM852-PF,[5]; PF media,54.0%
same,% Growth Reduction (7 days) WM1985-PF,[6],43.0%
same,% Growth Reduction (7 days) WM793-2%,[7],8.3%
same,% Growth Reduction (7 days) WM-983A-2%,[8]; 2% tumor media,0%
same,% Growth Reduction (7 days) WM983A-PF,[8]; PF media,60.5%
D-(SEQ ID NO:6): each amino acid residue is a D-amino residue or a glycine residue; possibly the same as D-(SEQ ID NO:6)-NH2 (G[dI]G[dK][dF][dL][dK][dS][dA][dK][dK][dF]G[dK][dA][dF][dV][dK][dI][dL][dN][dS]; not fully specified),Radioactive Counts WM1158,[9]; dose 1 μg/ml,131000
same,Radioactive Counts WM1158,[9]; dose 5 μg/ml,884
same,Radioactive Counts WM1158,[9]; dose 25 μg/ml,2108
same,Radioactive Counts WM983B,[10]; dose 1 μg/ml,225000
same,Radioactive Counts WM983B,[10]; dose 5 μg/ml,135
same,Radioactive Counts WM983B,[10]; dose 25 μg/ml,115
same,Radioactive Counts WM239A,[11]; dose 1 μg/ml,38053
same,Radioactive Counts WM239A,[11]; dose 5 μg/ml,221
same,Radioactive Counts WM239A,[11]; dose 25 μg/ml,459
same,Radioactive Counts WM115,[12]; dose 1 μg/ml,222000
same,Radioactive Counts WM115,[12]; dose 5 μg/ml,373
same,Radioactive Counts WM115,[12]; dose 25 μg/ml,263
same,Radioactive Counts WM1791A,[13]; dose 1 μg/ml,5655
same,Radioactive Counts WM1791A,[13]; dose 5 μg/ml,1065
same,Radioactive Counts WM1791A,[13]; dose 25 μg/ml,456
same,Radioactive Counts WM35,[14]; dose 1 μg/ml,47241
same,Radioactive Counts WM35,[14]; dose 5 μg/ml,3187
same,Radioactive Counts WM35,[14]; dose 25 μg/ml,360
same,Radioactive Counts WM973,[15]; dose 1 μg/ml,81675
same,Radioactive Counts WM973,[15]; dose 5 μg/ml,7284
same,Radioactive Counts WM973,[15]; dose 25 μg/ml,770
same,% Growth Reduction (7 days) WM1158,[1]; dose 5 μg/ml,98.0%
same,% Growth Reduction (7 days) WM1158,[1]; dose 25 μg/ml,98.8%
same,% Growth Reduction (7 days) WM239-A,[2]; dose 5 μg/ml,82.0%
same,% Growth Reduction (7 days) WM239-A,[2]; dose 25 μg/ml,96.3%
same,% Growth Reduction (7 days) WM-278,[3]; dose 5 μg/ml,93.1%
same,% Growth Reduction (7 days) WM-278,[3]; dose 25 μg/ml,96.1%
same,% Growth Reduction (7 days) WM793,[4]; dose 5 μg/ml,95.6%
same,% Growth Reduction (7 days) WM793,[4]; dose 25 μg/ml,98.4%
same,Radioactive Counts WM983A,[16]; dose 1 μg/ml,335000
same,Radioactive Counts WM983A,[16]; dose 5 μg/ml,5598
same,Radioactive Counts WM983A,[16]; dose 25 μg/ml,313
same,Radioactive Counts WM39,[17]; dose 1 μg/ml,27635
same,Radioactive Counts WM39,[17]; dose 5 μg/ml,1308
same,Radioactive Counts WM39,[17]; dose 25 μg/ml,273
same,Radioactive Counts WM902B,[18]; dose 1 μg/ml,49299
same,Radioactive Counts WM902B,[18]; dose 5 μg/ml,150
same,Radioactive Counts WM902B,[18]; dose 25 μg/ml,75
same,Radioactive Counts SkMe123,[19]; dose 1 μg/ml,114846
same,Radioactive Counts SkMe123,[19]; dose 5 μg/ml,2028
same,Radioactive Counts SkMe123,[19]; dose 25 μg/ml,429
same,Radioactive Counts WM1366,[20]; dose 1 μg/ml,288000
same,Radioactive Counts WM1366,[20]; dose 5 μg/ml,1910
same,Radioactive Counts WM1366,[20]; dose 25 μg/ml,1692
same,Radioactive Counts WM852,[21]; dose 1 μg/ml,169000
same,Radioactive Counts WM852,[21]; dose 5 μg/ml,2699
same,Radioactive Counts WM852,[21]; dose 25 μg/ml,554
same,Radioactive Counts WM8,[22]; dose 1 μg/ml,19226
same,Radioactive Counts WM8,[22]; dose 5 μg/ml,248
same,Radioactive Counts WM8,[22]; dose 25 μg/ml,99
same,Radioactive Counts WM164,[23]; dose 1 μg/ml,158000
same,Radioactive Counts WM164,[23]; dose 5 μg/ml,4143
same,Radioactive Counts WM164,[23]; dose 25 μg/ml,331
